Read-outs that look alike come from different tables or passages of the source.
Legend:
Type in all cases: cell-based
TNF-α = test: Inhibition of TNF-α production by stimulated human peripheral blood leukocytes in vitro; conditions: Homo sapiens, Leukocyte, read-out: Percentage of inhibition of TNF-α production
Method: (§1) Test substances used in in vitro experiments were dissolved in dimethyl sulfoxide (DMSO) (Kemika, Croatia) at concentrations of 50 mM and 10 mM, and were further diluted to final concentrations of 50 μM and 10 μM in 1 mL Dulbecco's modified Eagle medium (DMEM) supplemented with 1% heat inactivated fetal bovine serum (FBS), 1% L-glutamine, 50 U/ml penicillin, 50 μg/ml streptomycin and 2.5 μg/mL Fungizone (amphotericin B). Media and all media supplements were purchased from Gibco, Australia, except the FBS was purchased from Sigma, USA.
(§2) Peripheral blood leukocytes (PBL) were obtained from venous blood of healthy volunteers by sedimentation on 2% dextran T-500 (Amersham Biosciences, USA) and subsequent centrifugations of leukocyte rich plasma.
(§3) Peripheral blood leukocytes (PBL), isolated as described above, were seeded in a 48-well plate at a concentration of 3 to 5×10^6 cell per well in culture medium consisting of RPMI 1640 medium (Institute of Immunology, Croatia) supplemented with 10% heat-inactivated fetal calf serum (FCS, Biowhittaker, USA), 100 U/ml penicillin (Gibco, Australia), 100 μg/ml streptomycin (Gibco, Australia) and 2 mM L-glutamine (Gibco, Australia), and preincubated with the test compounds for 2 h at 37° C., in an atmosphere of 5% CO2, and 90% humidity. Then, stimuli (Sigma, USA) were added to a final concentration of 2 μg/mL lipopolysaccharide (LPS), 1 μg/mL phorbol 12-myristate 13-acetate (PMA) or 120 μg/mL zymosan. Samples were incubated overnight under conditions described above. At the end of incubation, the supernatants were transferred to eppendorf tubes and centrifuged for 10 min at 1500×g. Concentrations of human TNF-α, IL-1β, IL-6 and IL-8 were determined in cell supernatants by sandwich ELISA, using capture and detection antibodies (R&D Systems, Minneapolis, Minn.) according to the manufacturer's recommendations.
(§4) Inhibition (as percentage) was calculated using the following formula: % inhibition=(1−concentration of cytokines in sample/concentration of cytokines in positive control)×100.
(§5) The positive control refers to LPS-, PMA- or zymosan-stimulated samples that were not preincubated with test compounds.

IL-1α = test: Inhibition of IL-1 production by stimulated human peripheral blood leukocytes in vitro; conditions: Homo sapiens, Leukocyte, read-out: Percentage of inhibition of IL-1α production
IL-6 = test: Inhibition of IL-6 production by stimulated human peripheral blood leukocytes in vitro; conditions: Homo sapiens, Leukocyte, read-out: Percentage of inhibition of IL-6 production
Method: as §1, §2, §3, §4, §5

IL-8 = test: Inhibition of IL-8 production by stimulated human peripheral blood leukocytes in vitro; conditions: Homo sapiens, Leukocyte, read-out: Percentage of inhibition of IL-8 production
Method: as §1, §2, §3, §4, §5

Hep G2 = test: Cytotoxicity assay (MTT), Hep G2 cell line; conditions: 24 h
Method: (§6) To determine whether the anti-inflammatory activity of the test compounds was due to observed inhibition of cytokine production and inhibition of proliferation in vitro, and was not a consequence of cellular cytotoxicity, measurement of succinate dehydrogenase activity in living cells was performed. Cells were cultured for 24 h in RPM medium as described above at 37° C. the presence of the test compounds at concentrations of 50 μM and 12.5 μM. MTT [3-(4,5-dimethylthiazole-2-yl)-2,5-diphenyl tetrazolium bromide] (Promega, USA), a detection reagent, was then added and the cultures were incubated for 0.5-2 h. The amount of MTT-Formazan produced was determined using a spectrophotometer at 490 nm (Mosmann, J. Immunol. Methods, 1983, 65: 55-63).
(§7) The percentage of inhibition of cell growth was calculated using the following formula: % inhibition of cell growth=[…].

A549 = test: Cytotoxicity assay (MTT), A549 cell line; conditions: 24 h
Method: as §6, §7

Compound: CC[C@H]1OC(=O)[C@H](C)[C@@H](O[C@H]2C[C@@](C)(OC)[C@@H](OC(=O)CCNC3CC3)[C@H](C)O2)[C@H](C)[C@@H](O[C@@H]2O[C@H](C)C[C@H](N(C)C)[C@H]2O)[C@](C)(OC)C[C@@H](C)C(=O)N[C@H](C)[C@@H](O)[C@]1(C)O [Example 40]
- inhibition at 10 µM (TNF-α; LPS-stimulated PBL): 67%
- inhibition at 10 µM (TNF-α; PMA-stimulated PBL): 55%
- inhibition at 10 µM (TNF-α; zymosan-stimulated PBL): 60%
- inhibition at 50 µM (TNF-α; LPS-stimulated PBL): 82%
- inhibition at 50 µM (TNF-α; PMA-stimulated PBL): 77%
- inhibition at 50 µM (TNF-α; zymosan-stimulated PBL): 76%
- inhibition at 10 µM (IL-1α; LPS-stimulated PBL): 0%
- inhibition at 10 µM (IL-1α; PMA-stimulated PBL): 0%
- inhibition at 10 µM (IL-1α; zymosan-stimulated PBL): 1%
- inhibition at 50 µM (IL-1α; LPS-stimulated PBL): 28%
- inhibition at 50 µM (IL-1α; PMA-stimulated PBL): 0%
- inhibition at 50 µM (IL-1α; zymosan-stimulated PBL): 55%
- inhibition at 10 µM (IL-6; LPS-stimulated PBL): 7%
- inhibition at 10 µM (IL-6; PMA-stimulated PBL): 0%
- inhibition at 10 µM (IL-6; zymosan-stimulated PBL): 0%
- inhibition at 50 µM (IL-6; LPS-stimulated PBL): 0%
- inhibition at 50 µM (IL-6; PMA-stimulated PBL): 0%
- inhibition at 50 µM (IL-6; zymosan-stimulated PBL): 0%
- inhibition at 10 µM (IL-8; LPS-stimulated PBL): 24%
- inhibition at 10 µM (IL-8; PMA-stimulated PBL): 31%
- inhibition at 10 µM (IL-8; zymosan-stimulated PBL): 6%
- inhibition at 50 µM (IL-8; LPS-stimulated PBL): 0%
- inhibition at 50 µM (IL-8; PMA-stimulated PBL): 12%
- inhibition at 50 µM (IL-8; zymosan-stimulated PBL): 0%
- Percentage of inhibition of cell growth (Hep G2; 12.5 μM): 2%
- Percentage of inhibition of cell growth (Hep G2; 50 μM): 2%
- Percentage of inhibition of cell growth (A549; 12.5 μM): 0%
- Percentage of inhibition of cell growth (A549; 50 μM): 0%

Compound: CC[C@H]1OC(=O)[C@H](C)[C@@H](O[C@H]2C[C@@](C)(OC)[C@@H](OC(=O)CCN3CCN(CC4CCCN(C)C4)CC3)[C@H](C)O2)[C@H](C)[C@@H](O[C@@H]2O[C@H](C)C[C@H](N(C)C)[C@H]2O)[C@](C)(OC)C[C@@H](C)C(=O)N[C@H](C)[C@@H](O)[C@]1(C)O (stereo partly shown) [Example 33]
- inhibition at 10 µM (TNF-α; LPS-stimulated PBL): 16%
- inhibition at 10 µM (TNF-α; PMA-stimulated PBL): 23%
- inhibition at 10 µM (TNF-α; zymosan-stimulated PBL): 16%
- inhibition at 50 µM (TNF-α; LPS-stimulated PBL): 50%
- inhibition at 50 µM (TNF-α; PMA-stimulated PBL): 74%
- inhibition at 50 µM (TNF-α; zymosan-stimulated PBL): 53%
- inhibition at 10 µM (IL-1α; LPS-stimulated PBL): 28%
- inhibition at 10 µM (IL-1α; PMA-stimulated PBL): 33%
- inhibition at 10 µM (IL-1α; zymosan-stimulated PBL): 55%
- inhibition at 50 µM (IL-1α; LPS-stimulated PBL): 42%
- inhibition at 50 µM (IL-1α; PMA-stimulated PBL): 75%
- inhibition at 50 µM (IL-1α; zymosan-stimulated PBL): 85%
- inhibition at 10 µM (IL-6; LPS-stimulated PBL): 8%
- inhibition at 10 µM (IL-6; PMA-stimulated PBL): 9%
- inhibition at 10 µM (IL-6; zymosan-stimulated PBL): 13%
- inhibition at 50 µM (IL-6; LPS-stimulated PBL): 30%
- inhibition at 50 µM (IL-6; PMA-stimulated PBL): 49%
- inhibition at 50 µM (IL-6; zymosan-stimulated PBL): 40%
- inhibition at 10 µM (IL-8; LPS-stimulated PBL): 0%
- inhibition at 10 µM (IL-8; PMA-stimulated PBL): 0%
- inhibition at 10 µM (IL-8; zymosan-stimulated PBL): 0%
- inhibition at 50 µM (IL-8; LPS-stimulated PBL): 11%
- inhibition at 50 µM (IL-8; PMA-stimulated PBL): 10%
- inhibition at 50 µM (IL-8; zymosan-stimulated PBL): 40%
- Percentage of inhibition of cell growth (Hep G2; 12.5 μM): 5%
- Percentage of inhibition of cell growth (Hep G2; 50 μM): 4%
- Percentage of inhibition of cell growth (A549; 12.5 μM): 0%
- Percentage of inhibition of cell growth (A549; 50 μM): 0%

Compound: CC[C@H]1OC(=O)[C@H](C)[C@@H](O[C@H]2C[C@@](C)(OC)[C@@H](OC(=O)CCN3CCN(CCOCCO)CC3)[C@H](C)O2)[C@H](C)[C@@H](O[C@@H]2O[C@H](C)C[C@H](N(C)C)[C@H]2O)[C@](C)(OC)C[C@@H](C)C(=O)N[C@H](C)[C@@H](O)[C@]1(C)O [Example 18]
- inhibition at 10 µM (TNF-α; LPS-stimulated PBL): 9%
- inhibition at 10 µM (TNF-α; PMA-stimulated PBL): 38%
- inhibition at 10 µM (TNF-α; zymosan-stimulated PBL): 21%
- inhibition at 50 µM (TNF-α; LPS-stimulated PBL): 12%
- inhibition at 50 µM (TNF-α; PMA-stimulated PBL): 57%
- inhibition at 50 µM (TNF-α; zymosan-stimulated PBL): 30%
- inhibition at 10 µM (IL-1α; LPS-stimulated PBL): 16%
- inhibition at 10 µM (IL-1α; PMA-stimulated PBL): 34%
- inhibition at 10 µM (IL-1α; zymosan-stimulated PBL): 51%
- inhibition at 50 µM (IL-1α; LPS-stimulated PBL): 45%
- inhibition at 50 µM (IL-1α; PMA-stimulated PBL): 68%
- inhibition at 50 µM (IL-1α; zymosan-stimulated PBL): 90%
- inhibition at 10 µM (IL-6; LPS-stimulated PBL): 10%
- inhibition at 10 µM (IL-6; PMA-stimulated PBL): 33%
- inhibition at 10 µM (IL-6; zymosan-stimulated PBL): 34%
- inhibition at 50 µM (IL-6; LPS-stimulated PBL): 23%
- inhibition at 50 µM (IL-6; PMA-stimulated PBL): 61%
- inhibition at 50 µM (IL-6; zymosan-stimulated PBL): 63%
- inhibition at 10 µM (IL-8; LPS-stimulated PBL): 6%
- inhibition at 10 µM (IL-8; PMA-stimulated PBL): 7%
- inhibition at 10 µM (IL-8; zymosan-stimulated PBL): 25%
- inhibition at 50 µM (IL-8; LPS-stimulated PBL): 0%
- inhibition at 50 µM (IL-8; PMA-stimulated PBL): 0%
- inhibition at 50 µM (IL-8; zymosan-stimulated PBL): 22%
- Percentage of inhibition of cell growth (Hep G2; 12.5 μM): 5%
- Percentage of inhibition of cell growth (Hep G2; 50 μM): 3%
- Percentage of inhibition of cell growth (A549; 12.5 μM): 0%
- Percentage of inhibition of cell growth (A549; 50 μM): 0%

Compound: CC[C@H]1OC(=O)[C@H](C)[C@@H](O[C@H]2C[C@@](C)(OC)[C@@H](OC(=O)CCN(C)C3CCCCC3)[C@H](C)O2)[C@H](C)[C@@H](O[C@@H]2O[C@H](C)C[C@H](N(C)C)[C@H]2O)[C@](C)(OC)C[C@@H](C)C(=O)N[C@H](C)[C@@H](O)[C@]1(C)O [Example 25]
- inhibition at 10 µM (TNF-α; LPS-stimulated PBL): 0%
- inhibition at 10 µM (TNF-α; PMA-stimulated PBL): 41%
- inhibition at 10 µM (TNF-α; zymosan-stimulated PBL): 19%
- inhibition at 50 µM (TNF-α; LPS-stimulated PBL): 71%
- inhibition at 50 µM (TNF-α; PMA-stimulated PBL): 91%
- inhibition at 50 µM (TNF-α; zymosan-stimulated PBL): 88%
- inhibition at 10 µM (IL-1α; LPS-stimulated PBL): 22%
- inhibition at 10 µM (IL-1α; PMA-stimulated PBL): 58%
- inhibition at 10 µM (IL-1α; zymosan-stimulated PBL): 82%
- inhibition at 50 µM (IL-1α; LPS-stimulated PBL): 61%
- inhibition at 50 µM (IL-1α; PMA-stimulated PBL): 86%
- inhibition at 50 µM (IL-1α; zymosan-stimulated PBL): 93%
- inhibition at 10 µM (IL-6; LPS-stimulated PBL): 4%
- inhibition at 10 µM (IL-6; PMA-stimulated PBL): 51%
- inhibition at 10 µM (IL-6; zymosan-stimulated PBL): 51%
- inhibition at 50 µM (IL-6; LPS-stimulated PBL): 62%
- inhibition at 50 µM (IL-6; PMA-stimulated PBL): 87%
- inhibition at 50 µM (IL-6; zymosan-stimulated PBL): 86%
- inhibition at 10 µM (IL-8; LPS-stimulated PBL): 0%
- inhibition at 10 µM (IL-8; PMA-stimulated PBL): 0%
- inhibition at 10 µM (IL-8; zymosan-stimulated PBL): 17%
- inhibition at 50 µM (IL-8; LPS-stimulated PBL): 45%
- inhibition at 50 µM (IL-8; PMA-stimulated PBL): 34%
- inhibition at 50 µM (IL-8; zymosan-stimulated PBL): 63%
- Percentage of inhibition of cell growth (Hep G2; 12.5 μM): 10%
- Percentage of inhibition of cell growth (Hep G2; 50 μM): 8%
- Percentage of inhibition of cell growth (A549; 12.5 μM): 8%
- Percentage of inhibition of cell growth (A549; 50 μM): 4%
